From patent US11865111B2, “Antiviral drugs targeting the N-terminal domain (NTD) of the coronavirus spike receptor binding domain (RBD)” (priority 2021, dated 2024)
pEC50: −log10 of the molar value. Where two headings read alike, the source gives them in different places.

Legend:
[1] = system: SARS-CoV-2 (USA-WA1/2020); experiment: microbe, parasite or virus in culture; assay type: cell-based; conditions: for SI (selectivity index=CC50/EC50): CC50/EC50, against the SARS-CoV-2 strain
in vitro = conditions: African green monkey
[2] = Severe acute respiratory syndrome coronavirus 2, Vero C1008, 32 h, read-out: EC50
[3] = Severe acute respiratory syndrome coronavirus 2, Vero C1008, 32 h, read-out: EC90
[4] = Severe acute respiratory syndrome coronavirus 2, Vero C1008, against the SARS-CoV-2 strain, read-out: EC90 value

SMILES | SI (selectivity index=CC50/EC50) [1] | pEC50 [1, 2] | EC90 [1, 3] [µM] | CC50 (in vitro) [µM] | pEC50 ([1]; Severe acute respiratory syndrome coronavirus 2, Vero C1008, against the SARS-CoV-2 strain, read-out: EC50 value) | EC90 [1, 4] [µM] | pEC50 ([1]; Severe acute respiratory syndrome coronavirus 2, Vero C1008, against the SARS-CoV-2 strain, unit inferred, read-out: EC50 value)
COC(=O)c1cccc(CNCc2cccc(-c3csc(-c4nc5ccccc5[nH]4)c3)c2)c1 [Compound 1, methyl 3-(((3-(5-(1H-benzo[d]imidazol-2-yl)thiophen-3-yl)benzyl)amino)methyl)benzoate] | >5.30 | 5.25 | 9.5 | > 30 | – | – | –
CNC(=O)c1cccc(CNCc2cccc(-c3csc(-c4nc5ccccc5[nH]4)c3)c2)c1 [Compound 2, 3-(((3-(5-(1H-benzo[d]imidazol-2-yl)thiophen-3-yl)benzyl)amino)methyl)-N-methylbenzamide] | >4.04 | 5.13 | 13.1 | > 30 | – | – | –
COC(=O)c1cccc(CNC(=O)c2cccc(-c3csc(-c4nc5ccccc5[nH]4)c3)c2)c1 [Compound 3, methyl 3-((3-(5-(1H-benzo[d]imidazol-2-yl)thiophen-3-yl)benzamido)methyl)benzoate] | >4.00 | 5.12 | 12.6 | > 30 | – | – | –
CCOc1cc(CN2CCC(C(=O)Nc3cccc(-c4cccc(F)c4)c3)CC2)ccc1O [Compound 4, 1-(3-ethoxy-4-hydroxybenzyl)-N-(3′-fluoro-[1,1′-biphenyl]-3-yl)piperidine-4-carboxamide] | >4.92 | 5.21 | 10.1 | > 30 | – | – | –
CCOc1cc(CN2CCC(C(=O)Nc3cccc(-c4cccc(C(F)(F)F)c4)c3)CC2)ccc1O [Compound 5, 1-(3-ethoxy-4-hydroxybenzyl)-N-(3′-(trifluoromethyl)-[1,1′-biphenyl]-3-yl)piperidine-4-carboxamide] | 3.20 | 5.31 | 7.47 | 15.6 | – | – | –
CCOc1cc(CN2CCC(C(=O)Nc3cccc(-c4cccc(OC)c4)c3)CC2)ccc1O [Compound 6, 1-(3-ethoxy-4-hydroxybenzyl)-N-(3′-methoxy-[1,1′-biphenyl]-3-yl)piperidine-4-carboxamide] | 3.70 | 5.15 | 11.5 | 26.3 | – | – | –
O=C(Nc1cccc(-c2cccc(Cl)c2)c1)C1CCN(Cc2ccc(O)cc2)CC1 [Compound 7, N-(3′-chloro-[1,1′-biphenyl]-3-yl)-1-(4-hydroxybenzyl)piperidine-4-carboxamide] | 3.36 | 5.19 | 11 | 21 | – | – | –
COc1ccc(CN2CCC(C(=O)Nc3cccc(-c4cccc(Cl)c4)c3)CC2)cc1O [Compound 8, N-(3′-chloro-[1,1′-biphenyl]-3-yl)-1-(3-hydroxy-4-methoxybenzyl)piperidine-4-carboxamide] | 2.48 | 5.16 | 11.7 | 17 | – | – | –
CCOc1cc(CN2CCC(C(=O)Nc3cccc(-c4cccc(Cl)c4)c3)CC2)ccc1O [Compound 9, N-(3′-chloro-[1,1′-biphenyl]-3-yl)-1-(3-ethoxy-4-hydroxybenzyl)piperidine-4-carboxamide] | 2.80 | 5.24 | 8.9 | 16 | – | – | –
CCOc1cc(CN2CCC(C(=O)Nc3cccc(-c4ccc(Cl)cc4)c3)CC2)ccc1O [Compound 10, N-(4′-chloro-[1,1′-biphenyl]-3-yl)-1-(3-ethoxy-4-hydroxybenzyl)piperidine-4-carboxamide] | 2.65 | 5.21 | 9.1 | 16 | – | – | –
COc1cc(C(=O)OCCCN2CCCN(CCCOC(=O)c3cc(OC)c(OC)c(OC)c3)CC2)cc(OC)c1OC [Dilazep, 3-[4-[3-(3,4,5-trimethoxybenzoyl)oxypropyl]-1,4-diazepan-1-yl]propyl 3,4,5-trimethoxybenzoate, reference compound] | – | – | – | > 30 | 5.41 | 19.8 | –
O=C(NC1CCN(CCCCC2(C(=O)NCC(F)(F)F)c3ccccc3-c3ccccc32)CC1)c1ccccc1-c1ccc(C(F)(F)F)cc1 [N-(2,2,2-trifluoroethyl)-9-(4-(4-(4′-(trifluoromethyl)-[1,1′-biphenyl]-2-carboxamido)piperidin-1-yl)butyl)-9H-fluorene-9-carboxamide, reference compound] | 5.92 | – | – | 9.56 | – | 2.83 | 5.79
